We go through 19 compounds from US20230058189A1, “QUINOLIN-4-ONE AND 4(1H)-CINNOLINONE COMPOUNDS AND METHODS OF USING SAME” (Frequency Therapeutics, Inc., priority 2019, published 2023).

Type in all cases: biochemical
One assay concerns the target GSK3α (Homo sapiens, UniProt P49840). Nature of the assay: GSK3α in vitro enzymatic assay (Kinase-Glo Max luminescence). The settings on record: recombinant human GSK3, 10 μM ATP; approximate values; read-out: Potency GSK3alpha. The procedure: (§1) Enzymatic activities of compounds of the present disclosure can be tested using recombinant human GSK3 in an in vitro enzymatic assay to determine the ability of the compounds of the present disclosure to inhibit GSK3α and GSK3β.
(§2) The assay was performed using Kinase-Glo® Max luminescence kinase assay kit (Promega). The assay measures kinase activity by quantitating the amount of ATP remaining in solution following a kinase reaction. The luminescent signal from the assay is correlated with the amount of ATP present and is inversely correlated with the amount of kinase activity.
(§3) To perform the assay, compounds were diluted in 10% DMSO and 5 μl of the dilution was added to a 50 μl reaction so that the final concentration of DMSO was 1% in all of reactions. The enzymatic reactions were conducted at 30° C. for 40 minutes. The 50 μl reaction mixture contained 40 mM Tris, pH 7.4, 10 mM MgCl2, 0.1 mg/ml BSA, 2 mM DTT, 0.1 mg/ml GSK tide substrate, 10 uM ATP and GSK3. After the enzymatic reaction, 50 μl of Kinase-Glo Max Luminescence kinase assay solution (Promega) was added to each reaction and plates were incubated for 15 minutes at room temperature. Luminescence signal was measured using a BioTek Synergy 2 microplate reader.
(§4) Kinase activity assays were performed in duplicate at each concentration. The luminescence data were analyzed using the computer software, GraphPad Prism. The difference between luminescence intensities in the absence of Kinase (Lut) and in the presence of Kinase (Luc) was defined as 100% activity (Lut-Luc). Using luminescence signal (Lu) in the presence of the compound, percent activity was calculated as: % activity={(Lut-Lu)/(Lut-Luc)}×100%, where Lu=the luminescence intensity in the presence of the compound (all percent activities below zero were shown zero in the table).
(§5) The values of percent activity versus a series of compound concentrations were then plotted using non-linear regression analysis of Sigmoidal dose-response curve generated with the equation Y=B+(T−B)/1+10((LogEC50−X)×Hill Slope), where Y=percent activity, B=minimum percent activity, T=maximum percent activity, X=logarithm of compound and Hill Slope=slope factor or Hill coefficient. The ICs, value was determined by the concentration causing a half-maximal percent activity.

Another assay deals with GSK3β (Homo sapiens, UniProt P49841). Nature of the assay: GSK3β in vitro enzymatic assay (Kinase-Glo Max luminescence). The settings on record: recombinant human GSK3, 10 μM ATP; approximate values; read-out: Potency GSK3beta. The procedure:
as §1, §2, §3, §4, §5

A further assay deals with LSD-1 (Homo sapiens, UniProt O60341). Kind of assay: LSD-1 A-screen (AlphaScreen) demethylase enzymatic assay. The settings on record: approximate values; for IC50: read-out: Potency LSD-1 IC50; for inhibition at 50 µM: read-out: Potency LSD-1 % Inhibition at 50 μM. The method, then: (§6) Enzymatic activities of compounds of the present disclosure can be tested with recombinant human LSD using an in vitro enzymatic assay to determine the ability of the compounds of the present disclosure to inhibit LSD-1 and LSD2. Examples of the assay are provided below.
(§7) All of the enzymatic reactions were conducted in duplicate at room temperature for 60 minutes in a 10 μL mixture containing assay buffer, histone H3 peptide substrate, demthylase enzyme, and the test compound. These 10 μL reactions were carried out in wells of a 384-well Optiplate (PerkinElmer). The dilution of the compounds was first performed in 100% DMSO with the highest concentration at 5 mM Each intermediate compound dilution (in 100% DMSO) was then directly diluted 30× fold into assay buffer for 3.3× concentration (DMSO). […] From this intermediate step, 3 μL of compound was added to 4 μL of demethylase enzyme dilution was incubated for 30 minutes at room temperature. After this incubation, 3 μL of peptide substrate was added. The final DMSO concentration was 1%. After enzymatic reactions, 5 μL of anti-Mouse or anti-Rabbit Acceptor beads (PerkinElmer, diluted 1:500 with 1× detection buffer) and […] (BPS, diluted 1:800 with 1× detection buffer) were added to the reaction mix. After brief shaking, the plate was incubated for 30 minutes. Finally, 10 μL of AlphaScreen™ Streptavidin-conjugated donor beads (Perkin, diluted 1:125 with 1× detection buffer) were added. After 30 minutes, the samples were measured in an AlphaScreen microplate reader (EnSpire Alpha 2390 Multilabel Reader, Perkin Elmer).
(§8) Enzyme activity assays were performed in duplicates at each concentration. The A-screen intensity data were analyzed and compared. In the absence of the compound, the intensity in each data set was defined as 100% (Ce) activity. In the absence of enzyme, the intensity in each data set was defined as 0% (C0) activity. The percent activity in the presence of each compound was calculated according to the following equation: % activity=(C−C0)/(Ce−C0), where C=the intensity in the presence of the compound.
(§9) The value of percent activity versus a series of compound concentrations was then plotted using non-linear regression analysis of Sigmoidal dose-response curve generated with the equation Y=B+(T−B)/1+10((LogEC50−X)×Hill Slope), where Y=percent activity, B=minimum percent activity, T=maximum percent activity, X=logarithm of compound and Hill Slope=slope factor or Hill coefficient. The IC50 value was determined by the concentration causing a half-maximal percent activity.
In general terms: In Alpha technology, singlet oxygen from a donor bead excites a nearby acceptor bead.

The target in another assay is T1, LSD2 (Homo sapiens, UniProt Q8NB78).
T1 sequence (Q8NB78 1-822): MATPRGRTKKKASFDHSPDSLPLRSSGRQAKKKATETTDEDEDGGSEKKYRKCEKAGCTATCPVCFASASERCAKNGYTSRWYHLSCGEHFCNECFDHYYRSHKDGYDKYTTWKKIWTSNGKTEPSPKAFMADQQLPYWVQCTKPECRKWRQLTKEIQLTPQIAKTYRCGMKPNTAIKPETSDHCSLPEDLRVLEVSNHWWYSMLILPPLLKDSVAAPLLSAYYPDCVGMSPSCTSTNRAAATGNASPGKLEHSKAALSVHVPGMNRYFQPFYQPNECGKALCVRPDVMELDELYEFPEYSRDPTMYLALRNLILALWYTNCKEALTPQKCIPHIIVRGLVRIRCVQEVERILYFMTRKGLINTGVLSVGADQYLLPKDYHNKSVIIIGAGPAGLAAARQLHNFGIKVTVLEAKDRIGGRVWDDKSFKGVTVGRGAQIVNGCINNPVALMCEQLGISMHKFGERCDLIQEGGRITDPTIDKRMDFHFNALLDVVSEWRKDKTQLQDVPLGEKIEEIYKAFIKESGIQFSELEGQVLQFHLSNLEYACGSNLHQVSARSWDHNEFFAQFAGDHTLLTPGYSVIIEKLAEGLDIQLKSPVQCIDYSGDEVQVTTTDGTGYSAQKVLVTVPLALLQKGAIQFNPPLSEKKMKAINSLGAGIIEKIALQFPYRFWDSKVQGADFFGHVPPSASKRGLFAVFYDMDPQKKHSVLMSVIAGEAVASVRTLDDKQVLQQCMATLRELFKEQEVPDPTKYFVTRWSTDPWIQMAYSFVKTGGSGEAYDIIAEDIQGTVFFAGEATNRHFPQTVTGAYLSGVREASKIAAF
Nature of the assay: LSD2 A-screen (AlphaScreen) demethylase enzymatic assay. Particulars: 50 μM compound; approximate values; read-out: Potency LSD-2 % Inhibition at 50 μM. The method, then:
as §6, §7, §8, §9

The structures appear in SMILES notation. Some results are limits rather than exact numbers.

Sequence of GSK3β (P49841 whole entry): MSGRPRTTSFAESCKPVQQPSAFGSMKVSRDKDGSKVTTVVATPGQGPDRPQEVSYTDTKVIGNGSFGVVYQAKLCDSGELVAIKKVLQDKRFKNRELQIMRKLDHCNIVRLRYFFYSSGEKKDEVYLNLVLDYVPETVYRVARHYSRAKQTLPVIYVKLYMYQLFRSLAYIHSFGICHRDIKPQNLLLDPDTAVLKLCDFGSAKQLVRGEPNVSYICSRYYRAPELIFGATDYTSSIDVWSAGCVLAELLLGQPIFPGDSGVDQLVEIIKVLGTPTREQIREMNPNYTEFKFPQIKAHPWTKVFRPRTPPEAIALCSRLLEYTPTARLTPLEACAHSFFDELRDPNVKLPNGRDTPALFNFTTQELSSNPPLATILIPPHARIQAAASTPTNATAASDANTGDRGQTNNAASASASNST
Sequence of GSK3α (P49840 whole entry): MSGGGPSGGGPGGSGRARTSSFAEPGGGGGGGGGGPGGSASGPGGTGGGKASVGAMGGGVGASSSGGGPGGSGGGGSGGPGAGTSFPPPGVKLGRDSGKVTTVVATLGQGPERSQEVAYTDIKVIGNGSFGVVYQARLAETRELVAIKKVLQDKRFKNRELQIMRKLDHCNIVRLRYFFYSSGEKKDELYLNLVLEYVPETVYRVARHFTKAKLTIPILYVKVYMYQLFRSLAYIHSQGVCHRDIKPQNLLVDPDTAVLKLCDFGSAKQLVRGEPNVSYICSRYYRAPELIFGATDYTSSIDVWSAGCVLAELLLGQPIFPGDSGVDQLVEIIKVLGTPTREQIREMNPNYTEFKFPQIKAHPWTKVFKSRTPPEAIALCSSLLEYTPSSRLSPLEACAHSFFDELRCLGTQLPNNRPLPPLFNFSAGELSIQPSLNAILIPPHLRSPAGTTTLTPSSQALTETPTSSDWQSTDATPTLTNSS

Consider `Cn1cc(C(=O)O)c(=O)c2c(N)c(F)c(NCCN[C@@H]3C[C@H]3c3ccccc3)cc21` (relative stereo) [Compound I-86], for which the IC50 on GSK3α was determined as 919 nM; at GSK3β it was 2170 nM; at LSD-1, 1900 nM. For the same compound, the inhibition at 50 µM on LSD2 is 6%.

As to `CCCn1cc(C(=O)O)c(=O)c2c(N)c(F)c(NCCN[C@@H]3C[C@H]3c3ccccc3)cc21` (relative stereo) [Compound I-87], the results for the IC50 on GSK3α, on GSK3β and on LSD-1 were 114 nM, 157 nM and 3300 nM, respectively. Moreover, at LSD2, the inhibition at 50 µM was determined as 15%.

Take `CC(C)n1cc(C(=O)O)c(=O)c2c(N)c(F)c(NCCN[C@@H]3C[C@H]3c3ccccc3)cc21` (relative stereo) [Compound I-88]: the IC50 turned out to be 19.5 nM at GSK3α, 83 nM on GSK3β and 2600 nM at LSD-1. For the same compound, the inhibition at 50 µM at LSD2 turned out to be 14%.

For `Nc1c(F)c(NCCN[C@@H]2C[C@H]2c2ccccc2)cc2c1c(=O)c(C(=O)O)cn2C1CC1` (relative stereo) [Compound I-89], the IC50 on GSK3α came out at 393 nM; on GSK3β it was 308 nM; at LSD-1 it was 7400 nM. In addition, at LSD2, the inhibition at 50 µM was 5%.

For the compound `CC(C)n1cc(C(=O)O)c(=O)c2c(N)c(F)c(N[C@]3(C)C[C@@H](N[C@@H]4C[C@H]4c4ccccc4)C3)cc21` (relative stereo) [Compound I-93], the IC50 on GSK3α is 3950 nM; at GSK3β, 6540 nM. The figures for the inhibition at 50 µM on LSD-1 (50 μM compound) and on LSD2 were 3% and 2%, respectively.

With `CCn1cc(C(=O)O)c(=O)c2c(N)c(F)c(N[C@@H]3C[C@H]3c3ccccc3)cc21` (single isomer, unassigned) [Compound I-20], the IC50 at GSK3α was 102 nM; at GSK3β, 338 nM. In addition, at LSD-1 (50 μM compound, 50 µM), the “Potency LSD-1 % Inhibition at 50 μM” value is below 10% @ 50 μM. In addition, on LSD2, the inhibition at 50 µM came out at 10%.

In the case of `CCn1cc(C(=O)O)c(=O)c2cc(F)c(NC3CCCCC3)cc21` [Compound I-1], the IC50 on GSK3α is 3600 nM; on GSK3β, 6700 nM. Besides, the inhibition at 50 µM on LSD-1 (50 μM compound) worked out at 10%; on LSD2, 6%.

As to `CCC(CC)n1cc(C(=O)O)c(=O)c2c(C)c(F)c(NC3CCCCC3)cc21` [Compound I-3], the IC50 at GSK3α was found to be 250 nM; on GSK3β, 366 nM. Moreover, the inhibition at 50 µM at LSD-1 (50 μM compound) is 13%; on LSD2 it was 0%.

As to `CCn1cc(C(=O)O)c(=O)c2c(N)c(F)c(NC3CCCCC3)cc21` [Compound I-7], the results for the IC50 on GSK3α and on GSK3β were 38 nM and 18 nM, respectively. Also, the inhibition at 50 µM on LSD-1 (50 μM compound) worked out at 10%; on LSD2, 5%.

Regarding `CCn1cc(C(=O)O)c(=O)c2c(N)c(F)c(NC3CCOCC3)cc21` [Compound I-8], the results for the IC50 at GSK3α and on GSK3β were 713 nM and 452 nM, respectively. In addition, the figures for the inhibition at 50 µM at LSD-1 (50 μM compound) and at LSD2 were 10% and 1%, respectively.

In the case of `CCn1cc(C(=O)O)c(=O)c2c(N)c(F)c(NC3CCCC3)cc21` [Compound I-9], the results for the IC50 at GSK3α and on GSK3β were 69 nM and 53 nM, respectively. The inhibition at 50 µM on LSD-1 (50 μM compound) was 6%; at LSD2 it was 3%.

Consider `CCn1cc(C(=O)O)c(=O)c2c(N)c(F)c(NC3CCc4ccccc43)cc21` (stereo not shown) [Compound I-10], for which the IC50 at GSK3α worked out at 3800 nM; on GSK3β, 1900 nM. For the same compound, the inhibition at 50 µM on LSD-1 (50 μM compound) worked out at 22%; on LSD2, 6%.

With `CCn1cc(C(=O)O)c(=O)c2c(N)c(F)c(NC3Cc4ccccc4C3)cc21` [Compound I-11], the IC50 at GSK3α stood at 846 nM; on GSK3β, 990 nM. Moreover, the inhibition at 50 µM at LSD-1 (50 μM compound) amounted to 27%; at LSD2 it was 13%.

For the compound `CCn1cc(C(=O)O)c(=O)c2c(N)c(F)c(NC3CCC3)cc21` [Compound I-12], the values for the IC50 on GSK3α and on GSK3β were 82 nM and 55 nM, respectively. Also, the inhibition at 50 µM was 36% on LSD-1 (50 μM compound) and 0% on LSD2.

As to `CCn1cc(C(=O)O)c(=O)c2c(N)c(F)c(NC3CC3)cc21` [Compound I-15], the IC50 on GSK3α came out at 352 nM; at GSK3β, 223 nM. Also, the inhibition at 50 µM at LSD-1 (50 μM compound) and at LSD2 was 2% each time.

On to `CCn1cc(C(=O)O)c(=O)c2c(N)c(F)c(Nc3ccccc3)cc21` [Compound I-16], for which the IC50 on GSK3α came out at 107 nM; at GSK3β it was 68 nM. Besides, the inhibition at 50 µM on LSD-1 (50 μM compound) is 32%; at LSD2, 5%.

Take `CCn1cc(C(=O)O)c(=O)c2c(N)c(F)c(NCc3ccccc3)cc21` [Compound I-17]: the IC50 stood at 659 nM on GSK3α and 2030 nM at GSK3β. Also, the inhibition at 50 µM at LSD-1 (50 μM compound) amounted to 2%; on LSD2 it was 19%.

Consider `CCn1cc(C(=O)O)c(=O)c2c(N)c(F)c(NCCc3ccccc3)cc21` [Compound I-18], for which the figures for the IC50 at GSK3α and at GSK3β were 121 nM and 231 nM, respectively. The figures for the inhibition at 50 µM on LSD-1 (50 μM compound) and at LSD2 were 11% and 1%, respectively.

As to `CCn1cc(C(=O)O)c(=O)c2c(N)c(F)c(NCCCc3ccccc3)cc21` [Compound I-19], the IC50 is 19 nM on GSK3α and 29 nM at GSK3β. Also, the inhibition at 50 µM on LSD-1 (50 μM compound) turned out to be 27%; at LSD2, 17%.

The inhibition is the relative decrease from the control value, in per cent.
